These results are taken from patent US9770537B2, “Solvent methods for preparing crystalline macrolide particulates, compositions, and articles containing particulates” (SurModics, Inc., priority 2013, dated 2017).

Converted amounts (≈) assume the structure as drawn.

The conditions of data set [1]: cited from earlier work.
A short description of data set [2]: Solubility / saturation point of rapamycin in solvents. The data set is classed as physicochemical. The note with it: xylene at 20° C. As to the method:
Rapamycin has a molecular weight of 914.17 g/mol and molecular formula: C51H79NO13 (see also FIG. 1). It is insoluble in water, but soluble in ethanol (2 mM), methanol (25 mg/mL), DMSO (25 mg/mL), chloroform, (5 mg/mL), ether, acetone and N,N-dimethylformamide. As commercially supplied, rapamycin exists as one isomer (structurally homogeneous) in the solid form as indicated by X-rays whereas in solution there are two conformational isomers (approx. 4:1) which exist in equilibrium.
As a general matter, the macrolide therapeutic can be dissolved and/or dispersed in a desired amount in a solvent, or mixture of solvents, for forming the macrolide particulates. As a general matter, dependent on the solvent or solvent combination, as well as the macrolide being dissolved, it is understood in the composition that the macrolide can display a maximum solubility at a predetermined temperature, such as about 20° C. At the maximum solubility a solution can be referred to as “saturated.” The amount of macrolide dissolved can be described in conventional terms such as mg/mL, % (wt/vol), or molar. For example, the saturation point of rapamycin in many solvents is in the range of 15 mg/mL to 150 mg/mL. […]

Regarding `CO[C@H]1C[C@@H]2CC[C@@H](C)[C@@](O)(O2)C(=O)C(=O)N2CCCC[C@H]2C(=O)O[C@H]([C@H](C)C[C@@H]2CC[C@@H](O)[C@H](OC)C2)CC(=O)[C@H](C)/C=C(\C)[C@@H](O)[C@@H](OC)C(=O)[C@H](C)C[C@H](C)/C=C/C=C/C=C/1C` [Rapamycin, rapamycin], the solubility in chloroform in data set [1] (chloroform) was 5000 µg/mL (≈ 5.47 mM). In addition, the solubility in ethanol in data set [1] (ethanol) was 2000 µM (≈ 1830 µg/mL). For the same compound, the “solubility in ether, acetone and N,N-dimethylformamide” value in data set [1] (ether, acetone, N,N-dimethylformamide) was “soluble”. Besides, in data set [1] (water), the solubility in water result is reported as “insoluble”. For the same compound, the “saturated solution concentration in xylene” value in data set [2] was “about 75 mg/mL”.
